Holding throughout (type): functional
Test [1] has as its target Hepatocyte growth factor receptor (Homo sapiens, UniProt P08581).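 Note: kinase panel profiling across the kinome, with MET as the panel member.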
The target of test [2] is Dual specificity mitogen-activated protein kinase kinase 2 (Homo sapiens, UniProt P36507). Description: Navigating the Kinome. Panel member name: MAP2K2.
The target of test [3] is Cyclin-dependent kinase 9 (Homo sapiens, UniProt P50750).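 Note: value from the CDK9 entry of a kinome-spanning kinase panel.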
Test [4] deals with Fibroblast growth factor receptor 1 (Homo sapiens, UniProt P11362).
Sequence of Fibroblast growth factor receptor 1 (P11362 whole entry): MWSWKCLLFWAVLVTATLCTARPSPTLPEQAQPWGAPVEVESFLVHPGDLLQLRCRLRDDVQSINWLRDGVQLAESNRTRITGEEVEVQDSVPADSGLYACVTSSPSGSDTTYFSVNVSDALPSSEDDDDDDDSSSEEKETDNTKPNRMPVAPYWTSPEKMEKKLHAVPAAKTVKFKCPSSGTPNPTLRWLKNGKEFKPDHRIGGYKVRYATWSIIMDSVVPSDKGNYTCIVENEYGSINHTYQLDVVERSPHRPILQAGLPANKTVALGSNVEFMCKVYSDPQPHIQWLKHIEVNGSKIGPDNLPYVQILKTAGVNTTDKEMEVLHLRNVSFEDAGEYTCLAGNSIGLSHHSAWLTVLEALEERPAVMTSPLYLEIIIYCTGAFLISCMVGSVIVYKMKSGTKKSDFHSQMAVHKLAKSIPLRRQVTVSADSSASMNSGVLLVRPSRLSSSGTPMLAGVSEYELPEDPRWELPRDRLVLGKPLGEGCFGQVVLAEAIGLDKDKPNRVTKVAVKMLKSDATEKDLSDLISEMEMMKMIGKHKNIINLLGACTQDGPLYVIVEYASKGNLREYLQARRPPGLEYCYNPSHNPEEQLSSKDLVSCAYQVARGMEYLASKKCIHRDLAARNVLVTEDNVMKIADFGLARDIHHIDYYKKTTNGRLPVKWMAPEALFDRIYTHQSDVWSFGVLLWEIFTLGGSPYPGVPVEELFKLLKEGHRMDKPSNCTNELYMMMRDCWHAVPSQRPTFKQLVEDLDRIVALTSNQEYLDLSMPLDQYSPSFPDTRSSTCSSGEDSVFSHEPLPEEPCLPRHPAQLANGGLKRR
For test [5], the target named is Calcium/calmodulin-dependent protein kinase type II subunit alpha (Homo sapiens, UniProt Q9UQM7). Briefly: Navigating the Kinome. Panel member name: CAMK2A.
Another test concerns the target Focal adhesion kinase 1 (Homo sapiens, UniProt Q05397).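 Note: measured as one member of a kinome panel.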
In test [6] the target is Serine/threonine-protein kinase PAK 4 (Homo sapiens, UniProt O96013).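 Note: value obtained within a kinome profiling panel in which PAK4 was one of the panel members.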
For test [7], the target named is Insulin-like growth factor 1 receptor (Homo sapiens, UniProt P08069). Briefly: Navigating the Kinome. Panel member name: IGF1R.
Sequence of Insulin-like growth factor 1 receptor (P08069 31-736 limits assumed): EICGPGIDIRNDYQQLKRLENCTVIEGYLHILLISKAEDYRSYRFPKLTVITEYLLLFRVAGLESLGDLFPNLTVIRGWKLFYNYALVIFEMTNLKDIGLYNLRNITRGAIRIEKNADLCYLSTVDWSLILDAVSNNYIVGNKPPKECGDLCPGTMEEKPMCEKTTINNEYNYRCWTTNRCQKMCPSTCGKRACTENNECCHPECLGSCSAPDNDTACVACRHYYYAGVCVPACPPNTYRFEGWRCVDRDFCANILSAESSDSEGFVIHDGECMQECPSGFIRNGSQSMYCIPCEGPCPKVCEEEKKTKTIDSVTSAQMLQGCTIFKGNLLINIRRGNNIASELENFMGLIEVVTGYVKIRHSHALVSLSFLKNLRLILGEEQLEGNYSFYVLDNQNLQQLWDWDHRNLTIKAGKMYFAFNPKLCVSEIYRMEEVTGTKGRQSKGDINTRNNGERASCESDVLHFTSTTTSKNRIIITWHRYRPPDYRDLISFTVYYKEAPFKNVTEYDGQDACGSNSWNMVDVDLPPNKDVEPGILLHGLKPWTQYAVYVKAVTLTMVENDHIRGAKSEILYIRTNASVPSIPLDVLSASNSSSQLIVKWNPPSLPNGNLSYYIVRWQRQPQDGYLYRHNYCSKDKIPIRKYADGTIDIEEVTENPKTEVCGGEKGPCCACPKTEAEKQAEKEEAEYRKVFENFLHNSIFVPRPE
Sequence of Insulin-like growth factor 1 receptor (P08069 741-1367 limits assumed): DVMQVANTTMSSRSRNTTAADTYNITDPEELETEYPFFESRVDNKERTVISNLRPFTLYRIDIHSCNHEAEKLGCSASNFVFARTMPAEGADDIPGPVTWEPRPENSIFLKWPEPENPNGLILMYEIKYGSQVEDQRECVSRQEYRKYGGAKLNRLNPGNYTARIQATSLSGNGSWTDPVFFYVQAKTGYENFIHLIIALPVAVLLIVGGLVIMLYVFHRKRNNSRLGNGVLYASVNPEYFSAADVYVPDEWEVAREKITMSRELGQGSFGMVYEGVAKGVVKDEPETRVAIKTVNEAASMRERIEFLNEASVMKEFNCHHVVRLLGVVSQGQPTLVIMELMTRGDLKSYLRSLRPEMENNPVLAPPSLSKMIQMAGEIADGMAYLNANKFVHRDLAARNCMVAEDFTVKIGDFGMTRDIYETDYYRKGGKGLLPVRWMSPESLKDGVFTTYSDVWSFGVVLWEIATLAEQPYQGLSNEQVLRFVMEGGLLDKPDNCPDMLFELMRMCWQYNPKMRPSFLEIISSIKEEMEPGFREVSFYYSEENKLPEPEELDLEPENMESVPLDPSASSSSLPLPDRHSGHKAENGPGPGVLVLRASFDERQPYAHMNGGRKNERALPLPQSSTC
Test [8] has as its target T1, Serine/threonine-protein kinase TBK1 (Homo sapiens, UniProt Q9UHD2).
T1 sequence (Q9UHD2 whole entry): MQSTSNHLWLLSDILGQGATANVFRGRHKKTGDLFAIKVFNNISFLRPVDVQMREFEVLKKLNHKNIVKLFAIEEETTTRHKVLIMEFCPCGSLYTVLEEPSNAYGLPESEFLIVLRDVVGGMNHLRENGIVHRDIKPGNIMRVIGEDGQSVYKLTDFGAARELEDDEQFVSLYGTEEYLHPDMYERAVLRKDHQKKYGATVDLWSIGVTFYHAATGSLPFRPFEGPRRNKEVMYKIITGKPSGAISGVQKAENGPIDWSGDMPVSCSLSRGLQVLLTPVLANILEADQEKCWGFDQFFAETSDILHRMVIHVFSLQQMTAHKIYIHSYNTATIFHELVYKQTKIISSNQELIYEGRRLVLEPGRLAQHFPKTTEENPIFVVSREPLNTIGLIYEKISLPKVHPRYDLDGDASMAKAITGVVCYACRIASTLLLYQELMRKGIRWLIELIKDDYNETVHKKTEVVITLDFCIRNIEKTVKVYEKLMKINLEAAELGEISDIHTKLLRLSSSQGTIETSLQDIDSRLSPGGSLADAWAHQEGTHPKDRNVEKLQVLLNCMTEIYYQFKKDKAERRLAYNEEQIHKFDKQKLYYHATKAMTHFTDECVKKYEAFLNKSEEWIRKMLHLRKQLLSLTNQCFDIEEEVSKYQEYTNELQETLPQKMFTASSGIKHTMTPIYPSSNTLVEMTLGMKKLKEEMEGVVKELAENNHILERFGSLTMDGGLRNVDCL
Description: Navigating the Kinome. Panel member name: TBK1.

Test [9] addresses Cyclin-dependent kinase 7 (Homo sapiens, UniProt P50613).
The target of test [10] is Death-associated protein kinase 3 (Homo sapiens, UniProt O43293).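 Note: measured as one member of a kinome-wide profiling panel.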
Sequence of Death-associated protein kinase 3 (O43293 whole entry): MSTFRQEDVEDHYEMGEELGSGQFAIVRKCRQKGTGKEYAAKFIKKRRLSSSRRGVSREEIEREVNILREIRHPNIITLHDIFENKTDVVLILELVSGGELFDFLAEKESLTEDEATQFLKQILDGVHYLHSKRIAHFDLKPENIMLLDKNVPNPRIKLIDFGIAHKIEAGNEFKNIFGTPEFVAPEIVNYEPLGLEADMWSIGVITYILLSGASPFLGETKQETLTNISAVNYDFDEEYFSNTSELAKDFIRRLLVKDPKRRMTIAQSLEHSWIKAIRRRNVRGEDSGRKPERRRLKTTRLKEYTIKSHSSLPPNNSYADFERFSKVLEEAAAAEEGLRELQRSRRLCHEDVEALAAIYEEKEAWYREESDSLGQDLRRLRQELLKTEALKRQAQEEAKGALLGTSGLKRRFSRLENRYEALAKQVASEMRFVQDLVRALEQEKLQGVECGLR
For a further test, the target named is Activated CDC42 kinase 1 (Homo sapiens, UniProt Q07912). Description: Navigating the Kinome. Panel member name: ACK1.
Sequence of Activated CDC42 kinase 1 (Q07912 whole entry): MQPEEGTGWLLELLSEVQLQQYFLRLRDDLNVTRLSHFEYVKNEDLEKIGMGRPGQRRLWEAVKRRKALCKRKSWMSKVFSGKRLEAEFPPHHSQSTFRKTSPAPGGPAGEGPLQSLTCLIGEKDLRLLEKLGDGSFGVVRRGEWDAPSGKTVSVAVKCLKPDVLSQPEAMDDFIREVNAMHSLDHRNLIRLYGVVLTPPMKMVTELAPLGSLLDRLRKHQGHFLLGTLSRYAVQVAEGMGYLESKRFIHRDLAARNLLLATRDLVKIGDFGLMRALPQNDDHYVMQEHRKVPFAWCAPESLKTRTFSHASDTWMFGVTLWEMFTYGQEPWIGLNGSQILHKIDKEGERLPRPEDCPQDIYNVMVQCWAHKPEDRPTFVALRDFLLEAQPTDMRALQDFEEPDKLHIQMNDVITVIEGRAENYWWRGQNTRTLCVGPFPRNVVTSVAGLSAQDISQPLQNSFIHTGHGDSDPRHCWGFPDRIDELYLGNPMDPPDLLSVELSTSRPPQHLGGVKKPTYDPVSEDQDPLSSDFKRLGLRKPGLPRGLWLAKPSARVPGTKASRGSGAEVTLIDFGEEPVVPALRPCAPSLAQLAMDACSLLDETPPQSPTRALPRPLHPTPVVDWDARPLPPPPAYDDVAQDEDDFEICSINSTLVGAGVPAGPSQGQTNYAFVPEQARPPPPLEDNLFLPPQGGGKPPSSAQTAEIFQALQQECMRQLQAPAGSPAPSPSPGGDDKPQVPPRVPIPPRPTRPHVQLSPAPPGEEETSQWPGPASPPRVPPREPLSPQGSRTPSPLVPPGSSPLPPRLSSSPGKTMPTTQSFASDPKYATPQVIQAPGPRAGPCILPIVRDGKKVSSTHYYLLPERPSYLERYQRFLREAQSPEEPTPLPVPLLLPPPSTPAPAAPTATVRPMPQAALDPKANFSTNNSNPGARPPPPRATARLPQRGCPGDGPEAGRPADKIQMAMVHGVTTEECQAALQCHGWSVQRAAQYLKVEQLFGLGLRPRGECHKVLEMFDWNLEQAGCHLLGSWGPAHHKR
In test [11] the target is Macrophage-stimulating protein receptor (Homo sapiens, UniProt Q04912). Briefly: Navigating the Kinome. Panel member name: MST1R.
Sequence of Macrophage-stimulating protein receptor (Q04912 25-304 limits assumed): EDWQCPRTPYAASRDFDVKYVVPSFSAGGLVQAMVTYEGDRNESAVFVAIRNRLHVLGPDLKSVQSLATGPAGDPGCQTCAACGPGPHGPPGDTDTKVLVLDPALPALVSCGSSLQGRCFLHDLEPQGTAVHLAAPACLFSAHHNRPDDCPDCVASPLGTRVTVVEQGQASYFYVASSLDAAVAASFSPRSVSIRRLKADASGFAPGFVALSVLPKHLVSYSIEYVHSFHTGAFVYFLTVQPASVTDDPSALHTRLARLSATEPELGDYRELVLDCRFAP
Sequence of Macrophage-stimulating protein receptor (Q04912 310-1400 limits assumed): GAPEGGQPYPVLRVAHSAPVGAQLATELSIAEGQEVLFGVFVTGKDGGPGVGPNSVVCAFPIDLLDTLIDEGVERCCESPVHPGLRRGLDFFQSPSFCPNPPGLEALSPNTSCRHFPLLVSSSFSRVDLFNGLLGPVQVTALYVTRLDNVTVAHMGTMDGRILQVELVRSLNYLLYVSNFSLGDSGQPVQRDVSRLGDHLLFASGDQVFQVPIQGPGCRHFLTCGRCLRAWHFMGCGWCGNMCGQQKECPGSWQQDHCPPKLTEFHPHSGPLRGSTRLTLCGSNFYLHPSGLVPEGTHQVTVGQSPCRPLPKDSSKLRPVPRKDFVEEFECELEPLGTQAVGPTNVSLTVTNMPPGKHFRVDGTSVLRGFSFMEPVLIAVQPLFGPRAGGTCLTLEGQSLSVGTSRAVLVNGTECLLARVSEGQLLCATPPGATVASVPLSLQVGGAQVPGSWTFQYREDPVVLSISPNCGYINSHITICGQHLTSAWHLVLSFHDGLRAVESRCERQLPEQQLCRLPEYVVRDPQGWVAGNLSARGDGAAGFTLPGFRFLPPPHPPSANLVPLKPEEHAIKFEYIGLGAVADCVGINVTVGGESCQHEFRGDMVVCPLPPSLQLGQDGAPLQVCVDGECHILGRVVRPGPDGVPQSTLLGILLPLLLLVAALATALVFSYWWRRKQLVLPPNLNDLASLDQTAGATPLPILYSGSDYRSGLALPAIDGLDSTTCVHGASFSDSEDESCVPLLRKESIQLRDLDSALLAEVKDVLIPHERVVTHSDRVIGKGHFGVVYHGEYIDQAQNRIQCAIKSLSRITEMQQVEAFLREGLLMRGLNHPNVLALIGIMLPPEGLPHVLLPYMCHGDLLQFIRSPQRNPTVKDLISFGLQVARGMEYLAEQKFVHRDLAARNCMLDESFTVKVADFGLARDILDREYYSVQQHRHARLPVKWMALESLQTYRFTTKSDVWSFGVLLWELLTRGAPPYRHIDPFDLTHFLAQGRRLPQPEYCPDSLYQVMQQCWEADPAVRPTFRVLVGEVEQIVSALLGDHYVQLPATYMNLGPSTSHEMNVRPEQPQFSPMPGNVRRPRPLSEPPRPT
For a further test, the target named is T2, Activin receptor type-1 (Homo sapiens, UniProt Q04771).
T2 sequence (Q04771 whole entry): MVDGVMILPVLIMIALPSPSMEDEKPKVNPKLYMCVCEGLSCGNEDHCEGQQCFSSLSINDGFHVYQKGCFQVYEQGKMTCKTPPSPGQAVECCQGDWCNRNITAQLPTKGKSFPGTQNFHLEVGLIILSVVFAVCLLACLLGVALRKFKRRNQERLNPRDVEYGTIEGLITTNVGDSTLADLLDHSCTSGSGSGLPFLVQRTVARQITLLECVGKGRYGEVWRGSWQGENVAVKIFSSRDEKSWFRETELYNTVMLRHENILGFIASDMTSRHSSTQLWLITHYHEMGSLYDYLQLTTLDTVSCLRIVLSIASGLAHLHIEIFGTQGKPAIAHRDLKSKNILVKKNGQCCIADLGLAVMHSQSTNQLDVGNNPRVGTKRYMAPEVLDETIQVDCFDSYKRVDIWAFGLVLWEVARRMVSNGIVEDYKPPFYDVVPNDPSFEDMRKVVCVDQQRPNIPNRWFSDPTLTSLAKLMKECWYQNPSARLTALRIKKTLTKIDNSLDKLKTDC
Description: Navigating the Kinome. Panel member name: ACVR1.

In test [12] the target is T3, Replicative DNA helicase DnaB (Mycobacterium tuberculosis, UniProt P9WMR3).
T3 sequence (P9WMR3 whole entry): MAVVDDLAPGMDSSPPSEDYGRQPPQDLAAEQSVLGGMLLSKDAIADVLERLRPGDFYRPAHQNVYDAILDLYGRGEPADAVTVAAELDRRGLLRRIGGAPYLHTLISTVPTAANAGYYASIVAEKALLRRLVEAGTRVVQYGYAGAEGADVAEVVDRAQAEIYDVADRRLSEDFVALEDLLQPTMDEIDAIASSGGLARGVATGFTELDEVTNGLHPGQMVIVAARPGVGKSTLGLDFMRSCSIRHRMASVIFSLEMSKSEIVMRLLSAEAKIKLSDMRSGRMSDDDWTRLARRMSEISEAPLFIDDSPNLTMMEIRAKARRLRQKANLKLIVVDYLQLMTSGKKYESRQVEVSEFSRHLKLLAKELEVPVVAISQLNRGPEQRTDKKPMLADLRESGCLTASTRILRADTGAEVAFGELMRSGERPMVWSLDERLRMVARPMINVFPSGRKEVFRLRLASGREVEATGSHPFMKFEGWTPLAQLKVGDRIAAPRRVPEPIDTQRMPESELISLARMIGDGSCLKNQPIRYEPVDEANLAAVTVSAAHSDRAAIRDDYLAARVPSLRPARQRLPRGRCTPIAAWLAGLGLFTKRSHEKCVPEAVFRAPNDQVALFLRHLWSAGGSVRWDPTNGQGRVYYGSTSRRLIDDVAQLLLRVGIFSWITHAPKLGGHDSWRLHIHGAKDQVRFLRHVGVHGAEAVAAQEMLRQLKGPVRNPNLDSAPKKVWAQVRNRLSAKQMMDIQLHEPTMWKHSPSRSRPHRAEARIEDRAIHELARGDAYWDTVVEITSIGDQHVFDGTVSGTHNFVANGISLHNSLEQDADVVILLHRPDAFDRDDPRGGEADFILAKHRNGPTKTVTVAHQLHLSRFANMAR
Briefly: DnaB intein splicing inhibitors, dose response, biochemical, cell-free fluorescence (AID 449749).

Each structure is given as a SMILES string. Active and inactive are the calls of the source.

`CCC1CC(NS(=O)(=O)C2CC2)CC1c1ncc2cnc3[nH]ccc3n12` (centres undefined): the Ki in test [1] was > 2.51 µM (inactive); in test [2], > 3.98 µM (inactive); in test [3] it was > 1.58 µM (inactive); in test [4] it was 1.26 µM (active); in test [5], 2.51 µM (active); on Focal adhesion kinase 1, > 6.31 µM (inactive). The Ki in test [6] is 2.51 µM (active); in [7], > 2.51 µM (inactive); in test [8], > 3.16 µM (inactive); in [9], > 3.98 µM (inactive); in test [10] it was 0.794 µM (active); on Activated CDC42 kinase 1, 1.58 µM (active). The results for the Ki (in test [11]; at Activin receptor type-1) were 2 µM (active) and > 3.98 µM (inactive), respectively.

As for `O=C(Nc1cccc(C(F)(F)F)n1)Nc1ccnc2cc(OC(F)F)ccc12`, the Ki in [1] was > 2.51 µM (inactive); in test [2], > 3.98 µM (inactive); in test [3], > 1.58 µM (inactive); in test [4], > 3.98 µM (inactive); in [5] it was > 6.31 µM (inactive); on Focal adhesion kinase 1, > 6.31 µM (inactive). Further, the Ki in [6] is > 5.01 µM (inactive); in test [7], > 2.51 µM (inactive); in test [8], > 3.16 µM (inactive); in test [9], > 3.98 µM (inactive); in test [10], > 5.01 µM (inactive); on Activated CDC42 kinase 1, > 3.98 µM (inactive). In [11], the Ki is > 3.98 µM (inactive).

Take `O=c1[nH]c2cc(Br)cnc2[nH]1`: the Ki in test [2] is 50.1 µM (active); in test [3], 12.6 µM (active); in [4] it was 50.1 µM (active); at Focal adhesion kinase 1, 31.6 µM (active); in [6], 39.8 µM (active); in test [8], 79.4 µM (active). Also, the inhibition constant Ki is 12.6 µM (active) in test [9]; 12.6 µM (active) in [10]; 50.1 µM (active) on Activated CDC42 kinase 1; 63.1 µM (active) in test [11]; 25.1 µM (active) on Activin receptor type-1.

As for `O=C(Cc1ccccc1)NC1(O)C(=O)c2ccccc2C1=O`, the AC50 in test [12] was 6.13 µM (active).

As to `COC(=O)c1nc(-c2ccc3c(n2)C(=O)C(=N)C(OC)=C3O)c(N)c(-c2ccc(OC)c(OC)c2O)c1C`, the AC50 in [12] is > 380 µM (inconclusive).

With `Cc1cc(C)c(S(=O)(=O)/N=C2\C=C(Nc3ccc(C(=O)O)cc3)C(=O)c3ccccc32)c(C)c1`, in test [12], the AC50 is 0.149 µM (active).

With `O=C(Nc1cccc(C(F)(F)F)n1)Nc1ccnc2cc(Cl)ccc12`, the Ki in test [1] was > 2.51 µM (inactive); in [2], > 3.98 µM (inactive); in test [3], > 1.58 µM (inactive); in test [4] it was > 3.98 µM (inactive); in test [5], > 7.94 µM (inactive); in test [6], > 5.01 µM (inactive). The Ki in test [7] is > 2.51 µM (inactive); in [8] it was > 3.16 µM (inactive); in test [9], > 3.98 µM (inactive); in [10], > 5.01 µM (inactive); at Activated CDC42 kinase 1, > 3.98 µM (inactive); in [11], > 3.98 µM (inactive). On Activin receptor type-1, the Ki is 1 µM (active).

Values taken from ChEMBL document CHEMBL1201862, “PubChem BioAssay data set” (2004).
